Test results taken from US8829007B2 (priority 2009, dated 2014).
pIC50: −log10 of the molar value. Like-named read-outs stand apart in the source and are kept apart here.

System: influenza A virus (A/PR/8/34)
Test: microbe, parasite or virus in culture
Assay type: cell-based
[1] = Influenza A virus, PR/8, MDCK, mean all, A/PR/8/34 infected MDCK cells, CPE assay, read-out: IC50
[2] = Influenza A virus, PR/8, MDCK, MDCK cells infected with A/PR/8/34, cell protection (CPE), read-out: IC50 (mean all)

Compound	pIC50 [1]	further results
1-[trans-2-[[2-(5-chloro-1H-pyrrolo[2,3-b]pyridin-3-yl)-5-fluoro-pyrimidin-4-yl]amino]cyclohexyl]-3-propyl-urea [Compound 350]	–	pIC50 (read-out: IC50): 4.70 to 5.30
CCC(=O)N[C@@H]1CCCC[C@@H]1Nc1nc(-c2c[nH]c3ncc(Cl)cc23)ncc1F (relative stereo) [Compound 333, N-[cis-2-[[2-(5-chloro-1H-pyrrolo[2,3-b]pyridin-3-yl)-5-fluoro-pyrimidin-4-yl]amino]cyclohexyl]propanamide]	4.70 to 5.30	–
CCCC(=O)N[C@@H]1CCCC[C@@H]1Nc1nc(-c2c[nH]c3ncc(Cl)cc23)ncc1F (relative stereo) [Compound 334, N-[cis-2-[[2-(5-chloro-1H-pyrrolo[2,3-b]pyridin-3-yl)-5-fluoro-pyrimidin-4-yl]amino]cyclohexyl]butanamide]	4.70 to 5.30	–
O=C(N[C@@H]1CCCC[C@@H]1Nc1nc(-c2c[nH]c3ncc(Cl)cc23)ncc1F)C1CCCC1 (relative stereo) [Compound 335, N-[cis-2-[[2-(5-chloro-1H-pyrrolo[2,3-b]pyridin-3-yl)-5-fluoro-pyrimidin-4-yl]amino]cyclohexyl]cyclopentanecarboxamide]	< 4.70	–
O=C(N[C@@H]1CCCC[C@@H]1Nc1nc(-c2c[nH]c3ncc(Cl)cc23)ncc1F)c1ccccc1 (relative stereo) [Compound 336, N-[cis-2-[[2-(5-chloro-1H-pyrrolo[2,3-b]pyridin-3-yl)-5-fluoro-pyrimidin-4-yl]amino]cyclohexyl]benzamide]	< 4.70	–
CCCS(=O)(=O)N[C@@H]1CCCC[C@@H]1Nc1nc(-c2c[nH]c3ncc(Cl)cc23)ncc1F (relative stereo) [Compound 338, N-[cis-2-[[2-(5-chloro-1H-pyrrolo[2,3-b]pyridin-3-yl)-5-fluoro-pyrimidin-4-yl]amino]cyclohexyl]propane-1-sulfonamide]	< 4.70	–
CCCNC(=O)N[C@@H]1CCCC[C@@H]1Nc1nc(-c2c[nH]c3ncc(Cl)cc23)ncc1F (relative stereo) [Compound 339, 1-[cis-2-[[2-(5-chloro-1H-pyrrolo[2,3-b]pyridin-3-yl)-5-fluoro-pyrimidin-4-yl]amino]cyclohexyl]-3-propyl-urea]	4.70 to 5.30	–
CCC(=O)N[C@@H]1CCCC[C@@H]1Nc1nc(-c2c[nH]c3ncccc23)ncc1F (relative stereo) [Compound 341, N-[cis-2-[[5-fluoro-2-(1H-pyrrolo[2,3-b]pyridin-3-yl)pyrimidin-4-yl]amino]-cyclohexyl]propanamide]	< 4.70	–
CCCC(=O)N[C@@H]1CCCC[C@@H]1Nc1nc(-c2c[nH]c3ncccc23)ncc1F (relative stereo) [Compound 342, N-[cis-2-[[5-fluoro-2-(1H-pyrrolo[2,3-b]pyridin-3-yl)pyrimidin-4-yl]amino]cyclohexyl]butanamide]	< 4.70	–
O=C(N[C@@H]1CCCC[C@@H]1Nc1nc(-c2c[nH]c3ncccc23)ncc1F)C1CCCC1 (relative stereo) [Compound 343, N-[cis-2-[[5-fluoro-2-(1H-pyrrolo[2,3-b]pyridin-3-yl)pyrimidin-4-yl]amino]cyclohexyl]cyclopentanecarboxamide]	< 4.70	–
O=C(N[C@@H]1CCCC[C@@H]1Nc1nc(-c2c[nH]c3ncccc23)ncc1F)c1ccccc1 (relative stereo) [Compound 344, N-[cis-2-[[5-fluoro-2-(1H-pyrrolo[2,3-b]pyridin-3-yl)pyrimidin-4-yl]amino]cyclohexyl]benzamide]	< 4.70	–
CCCS(=O)(=O)N[C@@H]1CCCC[C@@H]1Nc1nc(-c2c[nH]c3ncccc23)ncc1F (relative stereo) [Compound 346, N-[cis-2-[[5-fluoro-2-(1H-pyrrolo[2,3-b]pyridin-3-yl)pyrimidin-4-yl]amino]cyclohexyl]propane-1-sulfonamide]	< 4.70	–
CCCNC(=O)N[C@@H]1CCCC[C@@H]1Nc1nc(-c2c[nH]c3ncccc23)ncc1F (relative stereo) [Compound 347, 1-[cis-2-[[5-fluoro-2-(1H-pyrrolo[2,3-b]pyridin-3-yl)pyrimidin-4-yl]amino]cyclohexyl]-3-propyl-urea]	< 4.70	–
CCC(=O)N[C@@H]1CCCC[C@H]1Nc1nc(-c2c[nH]c3ncc(Cl)cc23)ncc1F (relative stereo) [Compound 349, N-[trans-2-[[2-(5-chloro-1H-pyrrolo[2,3-b]pyridin-3-yl)-5-fluoro-pyrimidin-4-yl]amino]cyclohexyl]propanamide]	< 4.70	–
CCCC(=O)N[C@@H]1CCCC[C@H]1Nc1nc(-c2c[nH]c3ncc(Cl)cc23)ncc1F (relative stereo) [Compound 363, N-[trans-2-[[2-(5-chloro-1H-pyrrolo[2,3-b]pyridin-3-yl)-5-fluoro-pyrimidin-4-yl]amino]cyclohexyl]butanamide]	< 4.70	–
O=C(N[C@@H]1CCCC[C@H]1Nc1nc(-c2c[nH]c3ncc(Cl)cc23)ncc1F)c1ccccc1 (relative stereo) [Compound 365, N-[trans-2-[[2-(5-chloro-1H-pyrrolo[2,3-b]pyridin-3-yl)-5-fluoro-pyrimidin-4-yl]amino]cyclohexyl]benzamide]	< 4.70	–

Compound	pIC50 [1]	further results
CCCS(=O)(=O)N[C@@H]1CCCC[C@H]1Nc1nc(-c2c[nH]c3ncc(Cl)cc23)ncc1F (relative stereo) [Compound 367, N-[trans-2-[[2-(5-chloro-1H-pyrrolo[2,3-b]pyridin-3-yl)-5-fluoro-pyrimidin-4-yl]amino]cyclohexyl]propane-1-sulfonamide]	4.70 to 5.30	–
CCCNC(=O)N[C@@H]1CCCC[C@H]1Nc1nc(-c2c[nH]c3ncc(Cl)cc23)ncc1F (relative stereo) [Compound 368, 1-[trans-2-[[2-(5-chloro-1H-pyrrolo[2,3-b]pyridin-3-yl)-5-fluoro-pyrimidin-4-yl]amino]cyclohexyl]-3-propyl-urea]	< 4.70	–
CNC(=O)N[C@@H]1CCCC[C@@H]1Nc1nc(-c2c[nH]c3ncc(Cl)cc23)ncc1F (relative stereo) [Compound 430, 1-[cis-2-[[2-(5-chloro-1H-pyrrolo[2,3-b]pyridin-3-yl)-5-fluoro-pyrimidin-4-yl]amino]cyclohexyl]-3-methyl-urea]	> 5.30	–
CN(C)C(=O)N[C@@H]1CCCC[C@@H]1Nc1nc(-c2c[nH]c3ncc(Cl)cc23)ncc1F (relative stereo) [Compound 431, 3-[cis-2-[[2-(5-chloro-1H-pyrrolo[2,3-b]pyridin-3-yl)-5-fluoro-pyrimidin-4-yl]amino]cyclohexyl]-1,1-dimethyl-urea]	> 5.30	–
COC(=O)N[C@@H]1CCCC[C@@H]1Nc1nc(-c2c[nH]c3ncc(Cl)cc23)ncc1F (relative stereo) [Compound 432, Methyl N-[cis-2-[[2-(5-chloro-1H-pyrrolo[2,3-b]pyridin-3-yl)-5-fluoro-pyrimidin-4-yl]amino]cyclohexyl]carbamate]	< 4.70	–
NC1CCCCC1Nc1nc(-c2c[nH]c3ncccc23)ncc1F (stereo not shown) [Compound 4, N1-(5-fluoro-2-(1H-pyrrolo[2,3-b]pyridin-3-yl)pyrimidin-4-yl)cyclohexane-1,2-diamine]	–	pIC50 (MDCK cells infected with A/PR/8/34, cell protection (CPE), read-out: IC50 (mean all)): < 4.70
OC1CCCC[C@@H]1CNc1nc(-c2c[nH]c3ncc(Cl)cc23)ncc1F (stereo partly drawn) [Compound 12, (2R)-2-((2-(5-chloro-1H-pyrrolo[2,3-b]pyridin-3-yl)-5-fluoropyrimidin-4-ylamino)methyl)cyclohexanol]	–	pIC50 [2]: < 4.70
OC1CCCCC1Nc1nc(-c2c[nH]c3ncc(Cl)cc23)ncc1F (stereo not shown) [Compound 13, 2-(2-(5-chloro-1H-pyrrolo[2,3-b]pyridin-3-yl)-5-fluoropyrimidin-4-ylamino)cyclohexanol]	–	pIC50 [2]: > 5.30
CCOC(=O)CCCC(=O)N1CCC[C@@H](CNc2nc(-c3c[nH]c4ncc(Cl)cc34)ncc2F)C1 [Compound 19, (S)-ethyl 5-(3-((2-(5-chloro-1H-pyrrolo[2,3-b]pyridin-3-yl)-5-fluoropyrimidin-4-ylamino)methyl)piperidin-1-yl)-5-oxopentanoate]	–	pIC50 [2]: < 4.70
CC(C)(C)NC(=O)N1CCC[C@@H](CNc2nc(-c3c[nH]c4ncc(Cl)cc34)ncc2F)C1 [Compound 20, (S)—N-tert-butyl-3-((2-(5-chloro-1H-pyrrolo[2,3-b]pyridin-3-3-yl)-5-fluoropyrimidin-4-ylamino)methyl)piperidine-1-carboxamide]	–	pIC50 [2]: 4.70 to 5.30
COCCOC(=O)N1CCC[C@@H](CNc2nc(-c3c[nH]c4ncc(Cl)cc34)ncc2F)C1 [Compound 24, (S)-2-methoxyethyl 3-((2-(5-chloro-1H-pyrrolo[2,3-b]pyridin-3-yl)-5-fluoropyrimidin-4-ylamino)methyl)piperidine-1-carboxylate]	–	pIC50 [2]: < 4.70
CNC(=O)N1CCC[C@@H](CNc2nc(-c3c[nH]c4ncc(Cl)cc34)ncc2F)C1 [Compound 29, (S)-3-((2-(5-chloro-1H-pyrrolo[2,3-b]pyridin-3-yl)-5-fluoropyrimidin-4-ylamino)methyl)-N-methylpiperidine-1-carboxamide]	–	pIC50 [2]: 4.70 to 5.30
CC(C)C(=O)N1CCC[C@@H](CNc2nc(-c3c[nH]c4ncc(Cl)cc34)ncc2F)C1 [Compound 34, (S)-1-(3-((2-(5-chloro-1H-pyrrolo[2,3-b]pyridin-3-yl)-5-fluoropyrimidin-4-ylamino)methyl)piperidin-1-yl)-2-methylpropan-1-one]	–	pIC50 [2]: > 5.30
CC(C)OC(=O)N1CCC[C@@H](CNc2nc(-c3c[nH]c4ncc(Cl)cc34)ncc2F)C1 [Compound 35, (S)-isopropyl 3-((2-(5-chloro-1H-pyrrolo[2,3-b]pyridin-3-yl)-5-fluoropyrimidin-4-ylamino)methyl)piperidine-1-carboxylate]	–	pIC50 [2]: < 4.70
O=C(Nc1cccnc1)N1CCC[C@@H](CNc2nc(-c3c[nH]c4ncc(Cl)cc34)ncc2F)C1 [Compound 40, (S)-3-((2-(5-chloro-1H-pyrrolo[2,3-b]pyridin-3-yl)-5-fluoropyrimidin-4-ylamino)methyl)-N-(pyridin-3-yl)piperidine-1-carboxamide]	–	pIC50 [2]: < 4.70
